Read-outs that look alike come from different tables or passages of the source.
Assays:
hOAT3 = hOAT3 (Homo sapiens, UniProt Q8TCC7); assay: Inhibition of hOAT3-mediated uptake of 3H-ES in hOAT3-MDCK cells; format: cell-based
Source text: Considering the relative exposure characteristics, GA and PCA were selected as PK-marker and Q-marker components of PCE in previous studies ([Ma et al., 2015]; [Ma et al., 2016]; [Li et al., 2021b]). In this study, we investigated the concentration-dependent inhibitions of GA and PCA on multiple transporters, including OAT1, OAT3, OCT2, MDR1, and BCRP. Stably expressing cell lines of hOAT1-MDCK, hOAT3-MDCK, hOCT2-S2, hMDR1-MDCK, hBCRP-MDCK, and their mock cells were obtained from Japan Fuji Biomedical Co., Ltd. The cells were maintained in DMEM (Sigma) supplemented with 10% FCS, 1% non-essential amino acids (Sigma), and 2% L-glutamine. The medium for the Transwell® plates (Corning Costar, Cambridge, MA, United States) was supplemented with 0.1% gentamicin. Membrane filters were placed in a 12 mm well with 1.5 and 0.5 ml of culture medium in the basolateral and apical compartments, respectively. Cells were cultured at 37°C in an atmosphere of 5% CO2. The inhibition experiments were adapted from previous methods with minor modifications ([Li et al., 2021a]; [2021b]).
Briefly, the hOAT1-MDCK, hOAT3-MDCK, and hOCT2-S2 cells were trypsinized and suspended in the culture medium to provide a density of 1.5 × 10^5 cells/ml. After incubating for 48 h, the cells were washed twice with preheated DPBS and then pre-incubated with DPBS for 10 min at 37°C. 500 µl of DPBS containing probe substrates was added to initiate the uptake in the presence or absence of GA, PCA or positive inhibitors. The hMDR1-MDCK and hBCRP-MDCK cells were suspended at a density of 4.0 × 10^5 cells/ml. After cultivation for 7 days, cells were washed twice and equilibrated for 30 min at 37°C with the pre-warmed HBSS buffer. […] The radioactive intensity of ^14C-PAH, ^3H-ES, and ^14C-TEA was measured using a Tri-Carb 2910TR scintillator (PerkinElmer, United States). Fluorescence was measured at 485 nm (excitation) and 546 nm (emission) for rhodamine 123, and 425 nm (excitation) and 528 nm (emission) for lucifer yellow. IC50 values were determined by employing GraphPad Prism 9.

[1] = not given; remark: listed apart in the source
clinical = settings: male, human; for Cmax: C max; for Vd/F: V z/F; for k el: k e
in vivo = settings: male, Sprague-Dawley, rat, po, 0.72 g/kg; for Cmax: C max; for Vd/F: V z/F; for Tmax: t max, median (range); for k el: k e; for half-life: t 1/2, plasma PK-marker
hOAT1 = target: T1, hOAT1 (Homo sapiens, UniProt Q4U2R8); assay: Inhibition of hOAT1-mediated uptake of 14C-PAH in hOAT1-MDCK cells; format: cell-based
T1 construct: host or cells: MDCK
T1 sequence (Q4U2R8 1-563): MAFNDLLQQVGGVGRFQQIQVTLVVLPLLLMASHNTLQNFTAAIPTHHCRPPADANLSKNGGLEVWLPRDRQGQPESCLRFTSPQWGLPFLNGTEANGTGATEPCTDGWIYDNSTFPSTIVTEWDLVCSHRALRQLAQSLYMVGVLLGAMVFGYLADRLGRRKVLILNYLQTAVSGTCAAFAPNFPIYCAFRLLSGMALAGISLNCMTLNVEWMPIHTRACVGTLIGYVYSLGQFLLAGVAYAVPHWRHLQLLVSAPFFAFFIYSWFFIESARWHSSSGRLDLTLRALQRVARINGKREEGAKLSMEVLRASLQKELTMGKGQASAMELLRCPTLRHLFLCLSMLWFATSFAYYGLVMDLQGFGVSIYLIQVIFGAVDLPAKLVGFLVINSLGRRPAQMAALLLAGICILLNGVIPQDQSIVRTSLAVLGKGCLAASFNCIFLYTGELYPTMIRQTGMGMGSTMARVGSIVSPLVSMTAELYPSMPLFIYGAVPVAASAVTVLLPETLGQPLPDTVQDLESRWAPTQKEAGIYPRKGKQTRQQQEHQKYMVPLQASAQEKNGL
Protocol: Briefly, the hOAT1-MDCK, hOAT3-MDCK, and hOCT2-S2 cells were trypsinized and suspended in the culture medium to provide a density of 1.5 × 10^5 cells/ml. […] After cultivation for 7 days, cells were washed twice and equilibrated for 30 min at 37°C with the pre-warmed HBSS buffer. […] The content of DMSO was below 1% and constant in all inhibition experiments. All experiments were performed in triplicate. The cell lysate and 3.0 ml of aquasol-2 scintillation fluid were put into a scintillation flask. […] IC50 values were determined by employing GraphPad Prism 9.

[2] = plasma, oral, plasma PK-marker, human subjects, multiple doses of PCE (8 g, TID, seven days) + CIP 0.5 g
[3] = plasma, oral, plasma PK-marker, human subjects, single dose of PCE (8 g) + CIP 0.5 g
[4] = plasma, po, plasma PK-marker, human subjects, oral single dose of PCE (8 g) alone
[5] = plasma, plasma PK-marker, rats, intragastric PCE 0.72 g/kg + CIP […]
[6] = plasma, plasma PK-marker, rats, intragastric PCE 0.72 g/kg alone
[7] = plasma PK-marker, human subjects, oral single dose of PCE (8 g) alone

hOAT3, sequence (Q8TCC7 whole entry): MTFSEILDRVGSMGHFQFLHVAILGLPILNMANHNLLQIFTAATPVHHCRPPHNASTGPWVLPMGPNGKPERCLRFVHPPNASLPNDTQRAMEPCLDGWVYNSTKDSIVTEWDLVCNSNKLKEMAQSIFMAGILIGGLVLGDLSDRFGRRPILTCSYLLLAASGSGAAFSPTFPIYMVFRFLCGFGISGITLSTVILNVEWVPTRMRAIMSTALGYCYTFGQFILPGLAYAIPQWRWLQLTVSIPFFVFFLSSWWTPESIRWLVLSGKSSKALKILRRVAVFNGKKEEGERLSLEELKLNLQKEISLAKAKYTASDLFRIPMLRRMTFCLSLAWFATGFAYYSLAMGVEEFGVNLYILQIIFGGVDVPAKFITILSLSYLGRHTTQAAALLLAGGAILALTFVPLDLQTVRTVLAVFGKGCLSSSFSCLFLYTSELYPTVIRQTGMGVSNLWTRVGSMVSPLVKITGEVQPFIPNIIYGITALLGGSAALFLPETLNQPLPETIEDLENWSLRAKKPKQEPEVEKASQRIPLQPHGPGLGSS

**Q.** With `O=C(O)c1cc(O)c(O)c(O)c1` [GA, Gallic acid] as the molecule, how does the “t 1/2” value (male, Sprague-Dawley, rat, in vivo, po, 0.72 g/kg) read?
**A.** 157 ± 107 min

**Q.** What about the CL/F (rat, in vivo, po, 0.72 g/kg) of the same molecule?
**A.** 2.06 ± 0.85 L/h

**Q.** What about the IC50 (hOAT3) of the same molecule?
**A.** 62.3 µM

**Q.** And the CL/F ([1]; human, in vivo, po)?
**A.** 2.10 ± 0.64 L/h

**Q.** And the Tmax (clinical; in vivo, po)?
**A.** 52.8 min

**Q.** What about the AUC(0-t) (clinical; in vivo, po) of the same molecule?
**A.** 242 ± 70 ng·h/mL

**Q.** And the AUC(0-inf) (clinical; in vivo, po)?
**A.** 248 ± 67 ng·h/mL

**Q.** And the Cmax (clinical; in vivo, po)?
**A.** 130 ± 32.7 ng/mL

**Q.** And the Vd/F (clinical; in vivo, po)?
**A.** 322 ± 295 L

**Q.** What about the half-life (clinical; in vivo, po, t 1/2) of the same molecule?
**A.** 98.4 ± 55.2 min

**Q.** What about the k el (clinical; [2]) of the same molecule?
**A.** 0.000117 s⁻¹

**Q.** What about the k el (clinical; [3]) of the same molecule?
**A.** 0.000131 s⁻¹

**Q.** And the k el (clinical; [4])?
**A.** 0.000142 s⁻¹

**Q.** What about the AUC(0-t) (in vivo; in vivo) of the same molecule?
**A.** 465 ± 171 ng·h/mL

**Q.** What about the AUC(0-inf) (in vivo; in vivo) of the same molecule?
**A.** 483 ± 169 ng·h/mL

**Q.** What about the Cmax (in vivo; in vivo) of the same molecule?
**A.** 134 ± 36.4 ng/mL

**Q.** And the Vd/F (in vivo; in vivo)?
**A.** 8.93 ± 9.83 L

**Q.** What about the Tmax (in vivo; in vivo, plasma PK-marker, rats, intragastric PCE 0.72 g/kg alone) of the same molecule?
**A.** 90 min

**Q.** What about the k el (in vivo; [5]) of the same molecule?
**A.** 0.000122 s⁻¹

**Q.** What about the k el (in vivo; [6]) of the same molecule?
**A.** 9.72e-05 s⁻¹

**Q.** And the IC50 (hOAT1)?
**A.** 8.01 µM

**Q.** Which CL/F (plasma PK-marker, rats, intragastric PCE 0.72 g/kg + CIP […]) does the source give for `O=C(O)c1ccc(O)c(O)c1` [PCA, protocatechuic acid] here?
**A.** 6.67 ± 1.54 L/h

**Q.** And the CL/F (plasma PK-marker, rats, intragastric PCE 0.72 g/kg alone)?
**A.** 6.72 ± 2.19 L/h

**Q.** And the IC50 (hOAT3; hOAT3-MDCK cells, 3H-ES 0.05 µM, read-out: IC50, hOAT3)?
**A.** 152 µM

**Q.** What about the CL/F ([1]; plasma PK-marker, human subjects, multiple doses of PCE (8 g, TID, seven days) + CIP 0.5 g) of the same molecule?
**A.** 5.78 ± 1.57 L/h

**Q.** And the C max [1, 7]?
**A.** 6.07 ± 1.48 ng/mL

**Q.** What about the CL/F [1, 7] of the same molecule?
**A.** 5.64 ± 1.45 L/h

**Q.** What about the CL/F ([1]; plasma PK-marker, human subjects, single dose of PCE (8 g) + CIP 0.5 g) of the same molecule?
**A.** 4.26 ± 0.91 L/h

**Q.** What about the AUC(0-t) (clinical; [2]) of the same molecule?
**A.** 3.03 ± 0.9 ng·h/mL

**Q.** And the AUC(0-t) (clinical; [3])?
**A.** 3.68 ± 1.15 ng·h/mL

**Q.** And the AUC(0-inf) (clinical; [2])?
**A.** 3.35 ± 0.99 ng·h/mL

**Q.** What about the AUC(0-inf) (clinical; [3]) of the same molecule?
**A.** 4.4 ± 0.93 ng·h/mL

**Q.** And the Cmax (clinical; [2])?
**A.** 5.88 ± 1.66 ng/mL

**Q.** What about the Cmax (clinical; [3]) of the same molecule?
**A.** 6.44 ± 2.57 ng/mL

**Q.** And the Vd/F (clinical; [2])?
**A.** 150 ± 54.4 L

**Q.** What about the Vd/F (clinical; [3]) of the same molecule?
**A.** 149 ± 65.6 L

**Q.** What about the k el (clinical; [2]) of the same molecule?
**A.** 0.000697 s⁻¹

**Q.** And the k el (clinical; [3])?
**A.** 0.000569 s⁻¹

**Q.** And the half-life (clinical; plasma, oral, t 1/2, plasma PK-marker, human subjects, multiple doses of PCE (8 g, TID, seven days) + CIP 0.5 g)?
**A.** 18.6 ± 8.4 min

**Q.** What about the half-life (clinical; plasma, oral, t 1/2, plasma PK-marker, human subjects, single dose of PCE (8 g) + CIP 0.5 g) of the same molecule?
**A.** 25.2 ± 11.4 min

**Q.** What about the Tmax (clinical; plasma, po) of the same molecule?
**A.** 19.8 min

**Q.** And the AUC(0-t) (clinical; [4])?
**A.** 2.84 ± 0.72 ng·h/mL

**Q.** And the AUC(0-inf) (clinical; [4])?
**A.** 3.39 ± 0.94 ng·h/mL

**Q.** And the Vd/F (clinical; [4])?
**A.** 148 ± 23.9 L

**Q.** And the k el (clinical; [4])?
**A.** 0.000656 s⁻¹

**Q.** And the half-life (clinical; plasma, po, t 1/2, plasma PK-marker, human subjects, oral single dose of PCE (8 g) alone)?
**A.** 19.2 ± 6.6 min

**Q.** What about the AUC(0-t) (in vivo; [5]) of the same molecule?
**A.** 6.37 ± 1.18 ng·h/mL

**Q.** And the AUC(0-t) (in vivo; [6])?
**A.** 6.72 ± 2.39 ng·h/mL

**Q.** And the AUC(0-inf) (in vivo; [5])?
**A.** 7.04 ± 1.55 ng·h/mL

**Q.** What about the AUC(0-inf) (in vivo; [6]) of the same molecule?
**A.** 7.32 ± 2.39 ng·h/mL

**Q.** What about the Cmax (in vivo; [5]) of the same molecule?
**A.** 6.69 ± 1.87 ng/mL

**Q.** What about the Cmax (in vivo; [6]) of the same molecule?
**A.** 5.08 ± 1.82 ng/mL

**Q.** What about the Vd/F (in vivo; [5]) of the same molecule?
**A.** 6.87 ± 2.54 L

**Q.** And the Vd/F (in vivo; [6])?
**A.** 6.5 ± 3.16 L

**Q.** And the k el (in vivo; [5])?
**A.** 0.000306 s⁻¹

**Q.** What about the k el (in vivo; [6]) of the same molecule?
**A.** 0.000308 s⁻¹

**Q.** What about the half-life (in vivo; plasma, rats, intragastric PCE 0.72 g/kg + CIP […]) of the same molecule?
**A.** 45.6 ± 25.8 min

**Q.** What about the half-life (in vivo; plasma, rats, intragastric PCE 0.72 g/kg alone) of the same molecule?
**A.** 40.8 ± 12.6 min

**Q.** What about the Tmax (in vivo; [5]) of the same molecule?
**A.** 30 min

**Q.** What about the Tmax (in vivo; [6]) of the same molecule?
**A.** 30 min

**Q.** And the IC50 (hOAT1; hOAT1-MDCK cells, 14C-PAH 5 µM)?
**A.** 29.7 µM
